Tested on: yeast genes (level of expressed mRNA)
Assay: DNA chip analysis of expressed mRNA of yeast genes after 2 h culture with a toxic chemical substance
Assay type: cell-based, Saccharomyces cerevisiae S288C
Settings: for The level of expressed mRNA in the presence of chemical substance/ (ratio to absence of chemical substance): stress protein genes, DNA chip
Description: Yeast (Saccharomyces cerevtisiae S288C (α SUC2mal mel gap2 CUP1)) were cultured at 25° C. on YPD medium (yeast extract 1%, polypepton 2%, glucose 2%). One of toxic chemical substances was added to the cell at logarithmic growth phase, and the cell was further cultured for two hours. Cell was cultured without any chemical substance in the same condition, and was used as control. Concentrations of the chemical substances were defined to inhibit the growth of the yeast but not lead to death.
After the completion of cultivation, the culture was centrifuged to collect the cells. To the cells, sodium acetate buffer (50 mM sodium acetate, 10 mM EDTA, 1% SDS) was added, and the mixture was shaken at 65° C. for five minutes, followed by returning to room temperature, and obtaining the supernatant, which procedure was repeated two times. To the supernatant, ½ amount of a solution of phenol/chloroform was added, and the mixture was centrifuged to give a supernatant, which was added with an equal amount of chloroform, and the mixture was centrifuged to give a supernatant. To the supernatant, an equal amount of isopropanol containing 0.3 M sodium acetate was added, and the mixture was allowed to stand at room temperature for 30 minutes, after which the mixture was centrifuged to give a sediment of the whole RNAs. Seventy % ethanol was added to the sediment, and the mixture was again centrifuged to give a sediment, which was then dried and dissolved in water. mRNA was isolated from the whole RNAs as followings. In view of the fact that a poly A chain is attached to the 3′ terminus of mRNA, a polynucleotide having a poly T structure which was immobilized on the surface of latex beads was used to trap the mRNA, and then the mRNA was washed and eluted with spine column (Oligotex-dT30<Super>mRNA Purification Kit, Takara). Reverse transcription of the mRNA was conducted with a reverse transcriptase (Super Script II Reverse Transcriptase; catalogue No. 18064-014, GibcoBRL) using fluorescence-labeled nucleotides to give cDNAs that were introduced with Cy3-dUTP or Cy5-dUTP during the reverse transcription.
The labeled cDNAs were dissolved in TE buffer (10 mM Tris-HCl/1 mM EDTA, pH8.0), and the solution was dropped on the DNA chip containing the whole genes of yeast (DNA Chip Research Inc. Japan) so that the cDNAs were hybridized on the DNA chip at 65° C. for over 12 hours. The fluoresces intensity of the DNA chip was read with a scanner, and the ratio relative to the fluorescence intensity resulting from the absence of chemical substance was estimated as the following, which is shown in Tables 1 to 9: [formula]
In the Tables, “Intensity” indicated in the rightmost column is a value of the level of expressed mRNA of each gene in control cells as divided by the average level of the expressions of the whole genes.

SMILES: COc1cc(CNC(=O)CCCCC=CC(C)C)ccc1O [(12), 8-methyl-N-vanillyl-6-nonenamide]
- The level of expressed mRNA in the presence of chemical substance/The level of expressed mRNA in the absence of chemical substance (yeast gene YIL123W): 0.8
- The level of expressed mRNA in the presence of chemical substance/The level of expressed mRNA in the absence of chemical substance (yeast gene YIL140W): 1.0
- The level of expressed mRNA in the presence of chemical substance/The level of expressed mRNA in the absence of chemical substance (yeast gene YJL052W, two hours culture): 2.4
- The level of expressed mRNA in the presence of chemical substance/ (in its absence), gene YJL070C (yeast gene YJL070C, ratio of DNA chip fluorescence intensity to that without chemical substance): 1.0
- The level of expressed mRNA in the presence of chemical substance/The level of expressed mRNA in the absence of chemical substance (yeast gene YJL073W): 1.0
- The level of expressed mRNA in the presence of chemical substance/The level of expressed mRNA in the absence of chemical substance (yeast gene YJL089W): 1.2
- The level of expressed mRNA in the presence of chemical substance/ (ratio to absence), gene YJL096W (yeast gene YJL096W, mitochondria-located protein genes, 2 h culture with chemical): 1.0
- The level of expressed mRNA in the presence of chemical substance/The level of expressed mRNA in the absence of chemical substance (yeast gene YJL116C): 1.1
- The level of expressed mRNA in the presence of chemical substance/ (ratio to absence of chemical substance) (yeast gene YJL158C): 1.1
- The level of expressed mRNA in the presence of chemical substance/ (in its absence), gene YJL167W (yeast gene YJL167W, ratio of DNA chip fluorescence intensity to that without chemical substance): 1.3
- The level of expressed mRNA in the presence of chemical substance/ (ratio to absence), gene YJL180C (yeast gene YJL180C, mitochondria-located protein genes, 2 h culture with chemical): 0.8
- The level of expressed mRNA in the presence of chemical substance/ (in its absence), gene YJL216C (yeast gene YJL216C, ratio of DNA chip fluorescence intensity to that without chemical substance): 1.0
- The level of expressed mRNA in the presence of chemical substance/The level of expressed mRNA in the absence of chemical substance (yeast gene YJR004C): 0.8
- The level of expressed mRNA in the presence of chemical substance/The level of expressed mRNA in the absence of chemical substance (yeast gene YJR086W): 0.8
- The level of expressed mRNA in the presence of chemical substance/ (ratio to absence of chemical substance) (yeast gene YJR090C): 0.8
- The level of expressed mRNA in the presence of chemical substance/The level of expressed mRNA in the absence of chemical substance (yeast gene YKL008C): 1.5
- The level of expressed mRNA in the presence of chemical substance/The level of expressed mRNA in the absence of chemical substance (yeast gene YKL013C): 0.7
- The level of expressed mRNA in the presence of chemical substance/The level of expressed mRNA in the absence of chemical substance (yeast gene YKL039W): 0.9
- The level of expressed mRNA in the presence of chemical substance/The level of expressed mRNA in the absence of chemical substance (yeast gene YKL041W): 0.8
- The level of expressed mRNA in the presence of chemical substance/The level of expressed mRNA in the absence of chemical substance (yeast gene YKL096W): 0.3
- The level of expressed mRNA in the presence of chemical substance/ (ratio to absence of chemical substance) (yeast gene YKL164C): 0.8
- The level of expressed mRNA in the presence of chemical substance/The level of expressed mRNA in the absence of chemical substance (yeast gene YKL165C): 2.4
- The level of expressed mRNA in the presence of chemical substance/The level of expressed mRNA in the absence of chemical substance (yeast gene YKL193C): 0.9
- The level of expressed mRNA in the presence of chemical substance/ (in its absence), gene YKR009C (yeast gene YKR009C, ratio of DNA chip fluorescence intensity to that without chemical substance): 1.0
- The level of expressed mRNA in the presence of chemical substance/ (in its absence), gene YKR034W (yeast gene YKR034W, ratio of DNA chip fluorescence intensity to that without chemical substance): 0.7
- The level of expressed mRNA in the presence of chemical substance/ (ratio to absence of chemical substance) (yeast gene YKR053C): 0.7
- The level of expressed mRNA in the presence of chemical substance/ in its absence, gene YKR058W (yeast gene YKR058W, energy system protein genes, 2 h culture with the chemical, ratio to control without chemical): 0.9
- The level of expressed mRNA in the presence of chemical substance/ (in its absence), gene YLR006C (yeast gene YLR006C, ratio of DNA chip fluorescence intensity to that without chemical substance): 0.7
- The level of expressed mRNA in the presence of chemical substance/ (ratio to absence of chemical substance) (yeast gene YLR006C): 0.7
- The level of expressed mRNA in the presence of chemical substance/The level of expressed mRNA in the absence of chemical substance (yeast gene YLR120C): 1.6
- The level of expressed mRNA in the presence of chemical substance/The level of expressed mRNA in the absence of chemical substance (yeast gene YLR136C): 1.3
- The level of expressed mRNA in the presence of chemical substance/The level of expressed mRNA in the absence of chemical substance (yeast gene YLR178C): 2.2
- The level of expressed mRNA in the presence of chemical substance/The level of expressed mRNA in the absence of chemical substance (yeast gene YLR250W): 1.0
- The level of expressed mRNA in the presence of chemical substance/ in its absence, gene YLR295C (yeast gene YLR295C, energy system protein genes, 2 h culture with the chemical, ratio to control without chemical): 0.5
- The level of expressed mRNA in the presence of chemical substance/ (ratio to absence), gene YLR295C (yeast gene YLR295C, mitochondria-located protein genes, 2 h culture with chemical): 0.5
- The level of expressed mRNA in the presence of chemical substance/The level of expressed mRNA in the absence of chemical substance (yeast gene YLR327C): 1.4
- The level of expressed mRNA in the presence of chemical substance/ (in its absence), gene YLR351C (yeast gene YLR351C, ratio of DNA chip fluorescence intensity to that without chemical substance): 0.9
- The level of expressed mRNA in the presence of chemical substance/The level of expressed mRNA in the absence of chemical substance (yeast gene YLR356W): 1.5
- The level of expressed mRNA in the presence of chemical substance/The level of expressed mRNA in the absence of chemical substance (yeast gene YLR362W): 0.8
- The level of expressed mRNA in the presence of chemical substance/ (in its absence), gene YLR375W (yeast gene YLR375W, ratio of DNA chip fluorescence intensity to that without chemical substance): 0.9
- The level of expressed mRNA in the presence of chemical substance/The level of expressed mRNA in the absence of chemical substance (yeast gene YLR391W): 1.0
- The level of expressed mRNA in the presence of chemical substance/The level of expressed mRNA in the absence of chemical substance (yeast gene YLR429W): 1.1
- The level of expressed mRNA in the presence of chemical substance/ in its absence, gene YML129C (yeast gene YML129C, energy system protein genes, 2 h culture with the chemical, ratio to control without chemical): 0.8
- The level of expressed mRNA in the presence of chemical substance/ (ratio to absence), gene YML129C (yeast gene YML129C, mitochondria-located protein genes, 2 h culture with chemical): 0.8
- The level of expressed mRNA in the presence of chemical substance/The level of expressed mRNA in the absence of chemical substance (yeast gene YMR004W): 1.0
- The level of expressed mRNA in the presence of chemical substance/ (ratio to absence), gene YMR023C (yeast gene YMR023C, mitochondria-located protein genes, 2 h culture with chemical): 0.7
- The level of expressed mRNA in the presence of chemical substance/The level of expressed mRNA in the absence of chemical substance (yeast gene YMR094W): 0.9
- The level of expressed mRNA in the presence of chemical substance/The level of expressed mRNA in the absence of chemical substance (yeast gene YMR104C): 1.0
- The level of expressed mRNA in the presence of chemical substance/ (ratio to absence of chemical substance) (yeast gene YMR186W): 1.0
- The level of expressed mRNA in the presence of chemical substance/The level of expressed mRNA in the absence of chemical substance (yeast gene YMR219W): 1.5
- The level of expressed mRNA in the presence of chemical substance/The level of expressed mRNA in the absence of chemical substance (yeast gene YMR226C): 1.1
- The level of expressed mRNA in the presence of chemical substance/ in its absence, gene YMR267W (yeast gene YMR267W, energy system protein genes, 2 h culture with the chemical, ratio to control without chemical): 0.8
- The level of expressed mRNA in the presence of chemical substance/ (ratio to absence), gene YMR267W (yeast gene YMR267W, mitochondria-located protein genes, 2 h culture with chemical): 0.8
- The level of expressed mRNA in the presence of chemical substance/ in its absence, gene YMR267W (yeast gene YMR267W, ratio of DNA chip fluorescence intensity to that without chemical substance): 0.8
- The level of expressed mRNA in the presence of chemical substance/The level of expressed mRNA in the absence of chemical substance (yeast gene YMR275C): 0.7
- The level of expressed mRNA in the presence of chemical substance/The level of expressed mRNA in the absence of chemical substance (yeast gene YMR276W): 1.2
- The level of expressed mRNA in the presence of chemical substance/ (in its absence), gene YMR278W (yeast gene YMR278W, ratio of DNA chip fluorescence intensity to that without chemical substance): 1.0
- The level of expressed mRNA in the presence of chemical substance/ (in its absence), gene YMR293C (yeast gene YMR293C, ratio of DNA chip fluorescence intensity to that without chemical substance): 0.9
